According to patent US10975070B2, “Ghrelin receptor agonist for treatment of cachexia” (RaQualia Pharma Inc., priority 2010, dated 2021):

Columns and labels:
[1] = test system: rats with transplanted cancer tissue (sarcoma cells induced by methylcholanthrene); experiment: Inhibitory effect on weight loss of rats with transplanted cancer (methylcholanthrene-induced sarcoma); assay type: in vivo; details: once a day for 5 to 14 days from 6-7 days after transplantation, dose-dependent, result in words
Description: Inhibitory Effect on Weight Loss of Rats with Transplanted Cancer
The effect of Compound A was examined using this model. Sarcoma cells induced by methylcholanthrene were subcutaneously injected into the abdomen of rats. The rats were reared in a normal environment for about eight days and in this way animals used to provide cancer were produced. An amount of 0.2 to 0.3 g of fresh cancer tissue obtained from the animals used to provide cancer was subcutaneously transplanted into the abdomen of rats under anesthesia. From 6 days to 7 days after the transplantation of the cancer, Compound A was administered once a day for 5 days to 14 days, and the body weight was daily measured.
An experiment was conducted on Compound B in the same manner as described above.

[2] = test system: tumor-bearing mice prepared using a murine colon cancer cell line, CT26; experiment: Inhibitory effect on weight loss of tumor-bearing mice (CT26 colon cancer transplant); assay type: in vivo, BALB/c mice
Description: Inhibitory Effect on Weight Loss of Tumor-Bearing Mice
Tumor-bearing mice prepared using a murine colon cancer cell line, colon 26, are known to closely reproduce the symptoms of cancer cachexia (Cancer Research, 50, 4528-4532 (1990)). In this experiment, using tumor-bearing mice prepared using a murine colon cancer cell line, CT26, that was established in the same method as that for producing the murine colon cancer cell line, colon 26, (The Journal of Immunology, 154, 4685-4692 (1995)), Compound A of the present invention was evaluated for effects on the body weights of said mice. That is, CT26 colon cancer cells (5×10^6) were subcutaneously transplanted in the flank of BALB/c mice at 7 weeks of age. The transplanted mice were divided into two groups, and once every day from the following day of the transplantation, water for injection was orally administered to the control group, whereas Compound A was orally administered at a dose of 75 mg/kg to the compound administration group. The administered volume was […]. Five and ten days after the transplantation, the tumor size (major axis and minor axis) in each mouse was measured, and the tumor volume was calculated from the following formula: (major axis)×(minor axis)^2/2. In addition, the body weight of each mouse was measured daily after the transplantation. The tumor volume 5 and 10 days after the transplantation of the CT26 murine colon cancer cells, and the body weight 10 days after the transplantation are shown in Table 1. Data are expressed as the mean±standard error.

[3] = CT26 tumor-bearing BALB/c mice, 75 mg/kg orally once daily from the day after transplantation, mean ± standard error

In the case of `CN1N=C2CCN(C(=O)[C@@H](COCc3ccccc3)NC(=O)C(C)(C)N)C[C@@]2(Cc2ccccc2)C1=O` [Compound A, 2-amino-N-[2-(3a-(R)-benzyl-2-methyl-3-oxo-2,3,3a,4,6,7-hexahydro-pyrazolo[4,3-c]pyridin-5-yl)-1-(R)-benzyloxymethyl-2-oxo-ethyl]-isobutyramide], the “Progression of the weight loss in tumor-bearing animals” value [1] is reported as “significantly inhibited the progression of the weight loss”, the “Body weight 10 days after transplantation” value [2, 3] is reported as 22.3 ± 0.2 g and the “Tumor volume 5 days after transplantation” value [2, 3] is reported as 137 ± 8 mm^3. For the same molecule, the “Tumor volume 10 days after transplantation” value ([2]; CT26 tumor-bearing BALB/c mice, 75 mg/kg orally once daily from the day after transplantation, mean ± standard error, 75 mg/kg) was 291±25 mm^3, the “Effect on body weight 10 days after transplantation in comparison with the control group” value ([2]; CT26 tumor-bearing mice, 75 mg/kg orally, critical ratio of 0.1% or lower, result in words) was “significantly increased the body weight” and the “Effect on tumor volume in comparison with the control group” value ([2]; CT26 tumor-bearing mice, 75 mg/kg orally, result in words) was “not capable of reducing the tumor volume”.
With `CC(C)(N)C(=O)N[C@H](COCc1ccc(F)cc1F)C(=O)N1CCC2=NN(CC(F)(F)F)C(=O)[C@]2(Cc2ccccn2)C1` [Compound B, 2-amino-N-[1-(R)-(2,4-difluoro-benzyloxymethyl)-2-oxo-2-(3-oxo-3a-(R)-pyridin-2-ylmethyl-2-(2,2,2-trifluoro-ethyl)-2,3,3a,4,6,7-hexahydro-pyrazolo[4,3-c]pyridin-5-yl)-ethyl]-2-methyl-propionamide] the “Progression of the weight loss in tumor-bearing animals” value [1] was “significantly inhibited the progression of the weight loss”.
